Here are results for nine molecules from article PMC2782669 (Journal of the American Chemical Society, 2009).

Entries after “also recorded” stand apart in the source; their conditions may differ. Where two headings read alike, the source gives them in different places.

Series [1] concerns B. subtilis HB5600 (dhbA∷spc). Nature of the series: Disc diffusion growth promotion assay, HB5600. Format: cell-based. The following applies: in the presence of 2,2′-dipyridyl.
The test system of series [2] is B. subtilis HB5625 (feuA∷spc dhbA∷mls). Nature of the series: Disc diffusion growth promotion assay, HB5625. It counts as cell-based. The conditions noted are these: in the presence of 2,2′-dipyridyl.
Series [3] deals with esterase BesA. Nature of the series: BesA-catalyzed hydrolysis of apo siderophores followed by HPLC. Format: biochemical, B. cereus ATCC 14579. The conditions noted are these: 72 nM enzyme, 64 μM siderophore.
Series [4] has as its system esterase Fes. The experiment in a line: Fes-catalyzed hydrolysis of siderophores. It counts as biochemical. The conditions noted are these: Fes from Shigella flexneri, 64 μM substrates, 72 nM enzymes, HPLC.
The nature of series [5]: Strong acid hydrolysis followed by HPLC. Format: physicochemical. The following applies: 1 mg/mL, 6 M HCl, stirred 12 h (overnight).
The conditions of series [6]: cited from earlier work; for log K3: [LH2]^4-; for log K4: [LH3]^3-; for log K5: [LH4]^2-; for log K6: [LH5]^-; for log K2: [LH]^5-; for log K1: [L]^6-; for Σlog K1-6: sum of the stepwise protonation constants.
For series [7] the following is noted: cited from earlier work; for log β110: [FeL]^3-; for pM(Fe^III): pH 7.4, 1 μM total iron, 10 μM total ligand.
The target in series [8] is substrate-binding protein FeuA (Bacillus subtilis, UniProt P40409). The experiment in a line: Fluorescence quenching binding assay with FeuA-His6. Also noted: species or system B. subtilis 168.
substrate-binding protein FeuA, sequence (P40409 21-317): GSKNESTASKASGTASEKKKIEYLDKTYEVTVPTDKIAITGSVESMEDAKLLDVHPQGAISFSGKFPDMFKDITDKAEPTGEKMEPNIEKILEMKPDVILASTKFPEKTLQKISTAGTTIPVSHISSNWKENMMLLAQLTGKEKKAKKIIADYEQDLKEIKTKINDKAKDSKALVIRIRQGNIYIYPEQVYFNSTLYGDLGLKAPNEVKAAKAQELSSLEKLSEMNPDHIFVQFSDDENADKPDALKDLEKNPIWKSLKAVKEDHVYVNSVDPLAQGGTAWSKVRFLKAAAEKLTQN
Series [9] deals with esterase BesA. Nature of the series: BesA-catalyzed hydrolysis of ferric complexes followed by UV-Vis spectroscopy. Format: biochemical, B. cereus ATCC 14579. The conditions noted are these: 100 μM substrate, 1 μM enzyme, 75 mM HEPES pH 7.5, UV-Vis over 12 h.
The subject of series [10] is esterase Fes. The conditions noted are these: cited from earlier work.
Series [11] is described as follows: Potentiometric titration, ligand protonation constants. It counts as physicochemical.
Series [12] is classed as physicochemical.
Series [13] deals with B. subtilis ATCC 6051. Nature of the series: 55Fe-siderophore transport assay. The following applies: 37 °C, iron-limited medium. It counts as cell-based.
In the next series the test system is E. coli. The conditions noted are these: incorporated through FepA; cited from earlier work.
Series [14] has as its system B. subtilis ATCC 6051. The following applies: cited from earlier work.

As to `C[C@H]1OC(=O)[C@@H](NC(=O)CNC(=O)c2cccc(O)c2O)[C@@H](C)OC(=O)[C@@H](NC(=O)CNC(=O)c2cccc(O)c2O)[C@@H](C)OC(=O)[C@H]1NC(=O)CNC(=O)c1cccc(O)c1O` [BB, bacillibactin], the “growth promotion of B. subtilis HB5600 (in words)” value (shortened to “growth promotion … (in words)”) in series [1] is on record as “promoted growth”. Further, the “growth stimulation of B. subtilis HB5625, feuA deleted (in words)” value (“growth stimulation of B. subtilis HB5625” for short) in [2] is “prevented growth stimulation”. Further, the “hydrolysis of the apo siderophore by BesA” value (shortened to “hydrolysis … by BesA”) with esterase BesA [3] is “hydrolyzed sequentially”. For the same molecule, in the series on esterase Fes [4], the “hydrolysis by Fes” value is on record as “did not react”. In addition, the “resistance to acid hydrolysis” value in series [5] is “remained essentially intact”. In series [6], the “log K3” value is given as 12.1, the “log K4” value is 8.43, the “log K5” value is on record as 7.43 and the “log K6” value is 6.77. Moreover, in [6], the “log K2” value was 12.1, the “log K1” value was 12.1 and the “Σlog K1-6” value is given as 58.93. Further, in [7], the “log β110” value is 47.6 and the “pM(Fe^III)” value is 33.1.
In series [8], `C[C@H]1OC(=O)[C@@H](NC(=O)CNC(=O)c2cccc([O-])c2[O-])[C@@H](C)OC(=O)[C@@H](NC(=O)CNC(=O)c2cccc([O-])c2[O-])[C@@H](C)OC(=O)[C@H]1NC(=O)CNC(=O)c1cccc([O-])c1[O-].[Fe+3]` [[Fe^III(BB)]^3-] came in with a Kd of 15 nM. The “reaction of the ferric complex with BesA” value in the series on esterase BesA [9] is given as “the UV-Vis spectra changed”.
For `O=C(N[C@H]1COC(=O)[C@@H](NC(=O)c2cccc([O-])c2[O-])COC(=O)[C@@H](NC(=O)c2cccc([O-])c2[O-])COC1=O)c1cccc([O-])c1[O-].[Fe+3]` [[Fe^III(Ent)]^3-], the Kd in series [8] is 19 nM. The “reaction of the ferric complex with BesA” value with esterase BesA [9] is reported as “the UV-Vis spectra changed”. Besides, in the series on esterase Fes [10], the “hydrolysis by Fes” value is on record as “subject to enzymatic sequential hydrolysis”.
As to `O=C(CNC(=O)c1cccc(O)c1O)N[C@H]1COC(=O)[C@@H](NC(=O)CNC(=O)c2cccc(O)c2O)COC(=O)[C@@H](NC(=O)CNC(=O)c2cccc(O)c2O)COC1=O` [SGC, SERglyCAM], in series [11] ([LH3]^3-, 0.1 M KCl, 25 °C), the “log K4” value was 8.37(3). The “log K5” value in [11] ([LH4]^2-, 0.1 M KCl, 25 °C) is 7.54(2). Further, the “log K6” value in series [11] ([LH5]^-, 0.1 M KCl, 25 °C) is on record as 6.68(3). Further, in [11] (sum of the stepwise protonation constants), the “Σlog K1-6” value stood at 58.89. Further, the “log β110” value in series [12] ([FeL]^3-, competition with EDTA, 0.1 M KCl, 25 °C, pH 5 to 7.5) is given as 44.1(2). Also, in series [12] (pH 7.4, 1 μM total iron, 10 μM total ligand), the “pM(Fe^III)” value turned out to be 29.6. For the same molecule, the “growth promotion … (in words)” value in series [1] is “promoted growth”. Moreover, the “growth stimulation of B. subtilis HB5625” value in series [2] is “prevented growth stimulation”. In addition, in the series on esterase BesA [3], the “hydrolysis … by BesA” value is given as “hydrolyzed sequentially”.
In [8], `O=C(CNC(=O)c1cccc([O-])c1[O-])N[C@H]1COC(=O)[C@@H](NC(=O)CNC(=O)c2cccc([O-])c2[O-])COC(=O)[C@@H](NC(=O)CNC(=O)c2cccc([O-])c2[O-])COC1=O.[Fe+3]` [[Fe^III(SGC)]^3-] came in with a Kd of 52 nM. For the same molecule, in the series with B. subtilis ATCC 6051 [13], the “iron transport into B. subtilis” value was “transported into B. subtilis at levels similar to that of [Fe^III(BB)]^3-”. For the same molecule, in the series with esterase BesA [9], the “reaction of the ferric complex with BesA” value is “the UV-Vis spectra changed”.
`O=C(N[C@@H]1COC(=O)[C@H](NC(=O)c2cccc([O-])c2[O-])COC(=O)[C@H](NC(=O)c2cccc([O-])c2[O-])COC1=O)c1cccc([O-])c1[O-].[Fe+3]` [[Fe^III(D-Ent)]^3-] returned a Kd in series [8] of 10 nM. Also, the “reaction of the ferric complex with BesA” value with esterase BesA [9] is “No change in the absorption spectra”. Also, the “hydrolysis by Fes” value in the series with esterase Fes [10] is “neither apo-D-Ent nor [Fe^III(D-Ent)]^3- are hydrolyzed by Fes”. The “growth promotion of E. coli” value in the series on E. coli is “does not promote growth”.
As to `O=C(CNC(=O)c1cccc(O)c1O)N[C@@H]1COC(=O)[C@H](NC(=O)CNC(=O)c2cccc(O)c2O)COC(=O)[C@H](NC(=O)CNC(=O)c2cccc(O)c2O)COC1=O` [D-SGC, N,N′,N″-Tris[2,3-dihydroxybenzoyl-glycinyl]cyclotri-D-seryl trilactone], in series [1], the “growth promotion … (in words)” value is listed as “no significant zone of growth stimulation”. For the same molecule, in the series with esterase BesA [3], the “hydrolysis … by BesA” value is reported as “no effect; also recorded: did not affect”. The “hydrolysis by Fes” value with esterase Fes [4] is reported as “did not react”.
For `O=C(N[C@@H]1COC(=O)[C@H](NC(=O)c2cccc(O)c2O)COC(=O)[C@H](NC(=O)c2cccc(O)c2O)COC1=O)c1cccc(O)c1O` (single isomer, unassigned; ent d) [D-Ent, D-enterobactin], the “growth promotion … (in words)” value in series [1] is “no significant zone of growth stimulation”. For the same molecule, in the series with esterase BesA [3], the “hydrolysis … by BesA” value is given as “no effect; also recorded: did not affect”. In the series on B. subtilis ATCC 6051 [14], the “transport properties in B. subtilis” value is on record as “same transport properties as Ent”. In addition, the “hydrolysis by Fes” value in the series on esterase Fes [10] is “neither apo-D-Ent nor [Fe^III(D-Ent)]^3- are hydrolyzed by Fes”.
With `O=C(N[C@H]1COC(=O)[C@@H](NC(=O)c2cccc(O)c2O)COC(=O)[C@@H](NC(=O)c2cccc(O)c2O)COC1=O)c1cccc(O)c1O` [Ent, Enterobactin], in [1], the “growth promotion … (in words)” value is given as “promoted growth”. Also, in [2], the “growth stimulation of B. subtilis HB5625” value was “prevented growth stimulation”. Further, the “hydrolysis … by BesA” value with esterase BesA [3] is “hydrolyzed sequentially”. In [5], the “resistance to acid hydrolysis” value was “completely degraded”. In addition, in [6], the “log K3” value is 12.1, the “log K4” value is 8.6, the “log K5” value was 7.5 and the “log K6” value is given as 6.0. Besides, in [6], the “log K2” value is 12.1, the “log K1” value is 12.1 and the “Σlog K1-6” value is reported as 58.4. In series [7], the “log β110” value is on record as 49 and the “pM(Fe^III)” value is recorded as 34.3. Besides, the “hydrolysis by Fes” value in the series with esterase Fes [10] is “subject to enzymatic sequential hydrolysis”.
